In patent publication US7585875B2, “Substituted pyrazolo[1,5-a]pyridine compounds and their methods of use” (Avigen, Inc., priority 2006, dated 2009):
Structures can show the parent of a compound that is named as a salt.

Assays:
[1] = system: mechanical allodynia after chronic constriction injury (CCI) to the sciatic nerve; experiment: Mechanical allodynia by response to von Frey fibers, rat chronic constriction injury (CCI) model; format: in vivo, male Sprague-Dawley rats; settings: 2 hr post dosing
Text: Chronic Constriction Injury: Heat and cold allodynia responses as well as mechanical allodynia sensations can be evaluated as described below in rats having a chronic constriction injury (CCI). A unilateral mononeuropathy is produced in rats using the chronic constriction injury model described in Bennett et al., Pain (1988) 33:87-107. CCI is produced in anesthetized rats as follows. The lateral aspect of each rat's hind limb is shaved and scrubbed with Nolvasan. Using aseptic techniques, an incision is made on the lateral aspect of the hind limb at the mid-thigh level. The biceps femoris is bluntly dissected to expose the sciatic nerve. On the right hind limb of each rat, four loosely tied ligatures (for example, Chromic gut 4.0; Ethicon, Johnson and Johnson, Somerville, N.J.) are made around the sciatic nerve approximately 1-2 mm apart. On the left side of each rat, an identical dissection is performed except that the sciatic nerve is not ligated (sham). The muscle is closed with a continuous suture pattern with, e.g., 4-0 Vicryl (Johnson and Johnson, Somerville, N.J.) and the overlying skin is closed with wound clips. The rats are ear-tagged for identification purposes and returned to animal housing.
To induce allodynia, male Sprague-Dawley rats underwent chronic constriction injury (CCI) to the sciatic nerve as described by Bennett and Xie, Pain 1988; 33(1):87-107. The plantar surface of the hind paws was stimulated with von Frey filaments (Stoelting) to induce a withdrawal response by blinded personnel. The bending force of fiber required to induce a 50% withdrawal response was calculated following CCI surgery (pre-dosing baseline). N=5-6 allodynic rats received a single intraperitoneal administration of test compound or vehicle. Two hours post-dosing, 50% paw withdrawal threshold was determined again by blinded testers using von Frey filaments. The change in 50% withdrawal threshold relative to pre-dosing baseline is reported in Table 2 for various substituted pyrazolo[1,5-a]pyridine compounds of the invention.

[2] = biological target: phosphodiesterase (PDE) enzyme derived from bovine brain; experiment: Inhibition of PDE (PDELight kit, cAMP substrate); format: biochemical; settings: PDE from brain extract, cAMP as substrate
Procedure: In a 96-well plate, phosphodiesterase (PDE) enzyme (0.5-1 mU/well) derived from bovine brain (Sigma) was combined with 5 uM cAMP substrate (Sigma). Test compounds (0-200 uM) or vehicle (0.5% DMSO) were added to the enzyme/substrate and incubated for 1 hour. Using a PDELight® kit (Cambrex), the amount of AMP produced in the reaction from the hydrolysis of cAMP was quantified using PDELight AMP Detection Reagent which converts the AMP directly to ATP. The assay uses luciferase, which catalyses the formation of light from the newly formed ATP and luciferin. The luminescence was read on a Victor Light 1420 luminometer. IC50 calculations were plotted using a nonlinear regression curve fit.

| Structure (SMILES) | Mechanical Allodynia ΔWT (change from pre-dosing 50% withdrawal threshold) ([1]; 10 mg/kg IP) | IC50 [2] | Mechanical Allodynia ΔWT (change from pre-dosing 50% withdrawal threshold) ([1]; 20 mg/kg IP) |
| --- | --- | --- | --- |
| COc1ccc(-c2nn3ccccc3c2C(=NO)C(C)C)cc1 [Compound 1022, 1-(2-(4-methoxyphenyl)pyrazolo[1,5-a]pyridin-3-yl)-2-methylpropan-1-one oxime] | 0 grams | 23.9 µM |  |
| CC(C)=Cc1c(C(C)C)nn2ccccc12 [compound 1049, 2-isopropyl-3-(2-methylprop-1-enyl)pyrazolo[1,5-a]pyridine] | 0 grams | 92.5 µM |  |
| CNC(C)C(=O)c1c(C(C)C)nn2ccccc12 (stereo not shown) [Compound 1042, 1-(2-isopropylpyrazolo[1,5-a]pyridin-3-yl)-2-(methylamino)propan-1-one hydrochloride] | 10 mg/kg: 0.37 grams | 31.9 µM | 20 mg/kg: 0.22 grams |
| CC(C)c1nn2ccccc2c1C(=O)C(C)N1CCNCC1 (stereo not shown) [Compound 1037, 1-(2-isopropylpyrazolo[1,5-a]pyridin-3-yl)-2-(piperazin-1-yl)propan-1-one hydrochloride] | 0 grams | > 200 µM |  |
| CC(C)c1nn2ccccc2c1C(=O)C(C)N1CCN(C)CC1 (stereo not shown) [Compound 1035, 1-(2-isopropylpyrazolo[1,5-a]pyridin-3-yl)-2-(4-methylpiperazin-1-yl)propan-1-one hydrochloride] | 0 grams | 198 µM |  |
| CC(C)c1nn2ccccc2c1C(=O)C(N)c1ccccc1 (stereo not shown) [Compound 1039, 2-amino-1-(2-isopropylpyrazolo[1,5-a]pyridin-3-yl)-2-phenylethanone] | 0.05 grams | 8.2 µM |  |
| CC(C)C(=NOC(N)=O)c1c(-c2ccc(Cl)cc2)nn2ccccc12 [Compound 1026, 1-(2-(4-chlorophenyl)pyrazolo[1,5-a]pyridin-3-yl)-2-methylpropan-1-one O-carbamoyl oxime] | 1.14 grams | 27.7 µM |  |
| CC(C)c1nn2ccccc2c1C(NCC1CC1)C(C)C (stereo not shown) [Compound 1048, N-(cyclopropylmethyl)-1-(2-isopropylpyrazolo[1,5-a]pyridin-3-yl)-2-methylpropan-1-amine hydrochloride] | 0 grams | > 200 µM |  |
| CC(C)c1nn2ccccc2c1C(NC1CC1)C(C)C (stereo not shown) [Compound 1044, N-(1-(2-isopropylpyrazolo[1,5-a]pyridin-3-yl)-2-methylpropyl)cyclopropanamine] | 0.08 grams | > 200 µM |  |
| CC(C)C(=NO)c1c(-c2ccc(Cl)cc2)nn2ccccc12 [Compound 1025, 1-(2-(4-chlorophenyl)pyrazolo[1,5-a]pyridin-3-yl)-2-methylpropan-1-one oxime] | 0.81 grams | 23 µM |  |
| CC(C)c1nn2ccccc2c1C(=O)C(C)N1CCCCC1 (stereo not shown) [Compound 1036, 1-(2-isopropylpyrazolo[1,5-a]pyridin-3-yl)-2-(piperidin-1-yl)propan-1-one hydrochloride] | 0 grams | > 200 µM |  |
| CC(C)c1nn2ccccc2c1C(=O)c1ncccc1Cl [Compound 1038, (3-chloropyridin-2-yl)(2-isopropylpyrazolo[1,5-a]pyridin-3-yl)methanone] | 0.32 grams | 26.4 µM |  |
| CC(C)C(=NOC(N)=O)c1c(-c2ccccc2)nn2ccccc12 [Compound 1017, 2-methyl-1-(2-phenylpyrazolo[1,5-a]pyridin-3-yl)propan-1-one O-carbamoyl oxime] | 0.91 grams | > 200 µM |  |
| CC(C)C(=NOC(N)=O)c1c(-c2ccc(F)cc2)nn2ccccc12 [Compound 1020, 1-(2-(4-fluorophenyl)pyrazolo[1,5-a]pyridin-3-yl)-2-methylpropan-1-one O-carbamoyl oxime] |  | > 200 µM |  |
